# Tested on: PC-3 cells
# Test: Cofilin phosphorylation Western blot in PC-3 cells stimulated by HGF
# Assay type: cell-based
# Details: 50 nM
smiles,measurement,value
"Cc1c[nH]c2ncnc(-c3ccc(NC(=O)N(CCO)c4ccccc4)cc3)c12 [Compound 18b, 1-(2-Hydroxyethyl)-3-(4-(5-methyl-7H-pyrrolo[2,3-d]pyrimidin-4-yl)phenyl)-1-phenylurea]",inhibition of cofilin phosphorylation in PC-3 cells (Western blot),significant inhibition
